The text below walks through data of patent publication US20260166121A1, “COMPOSITIONS AND METHODS FOR THE TREATMENT OF HEMORRHAGIC SHOCK” (Children's Hospital Medical Center, priority 2022, published 2026).

Assay [1] relates to AMPKα1 wild-type (WT) and knockout (KO) mice. Put plainly: Survival analysis up to 7 days after hemorrhagic shock. It counts as in vivo. The conditions noted are these: 100 μg/kg intra-arterially at resuscitation, subcutaneously at 24 h and 48 h, compared to vehicle treatment. As for the experimental part: Preparation of PEGylated humanin-G and survival analysis. In separate groups of mice survival studies were conducted. For these studies, we generated a longer-acting humanin-G by covalent conjugation of polyethylene glycol (PEG). Briefly, humanin-G was conjugated (1:1 molar ratio) to generate a non-cleavable PEGylated humanin-G. Humanin-G was dissolved in phosphate-buffered saline, pH 7.4, with 5 mM EDTA and mixed at room temperature with an equal volume of DMSO containing PEG-maleimide and left overnight (26). The product, PEGylated humanin-G (PEG10 kDa) was purified by size-exclusion chromatography with a 50 mM ammonium acetate buffer. Mice were subjected to hemorrhagic shock as described above. Mice received PEGylated humanin-G (100 μg/kg, intra-arterially) as a single dose at 90 minutes after blood removal at the time of resuscitation. Three hours after resuscitation, the femoral artery was occluded, and the skin incision was closed in layers. Mice were then allowed to awaken from anesthesia. Mice then received a second and a third dose of PEGylated humanin-G (100 μg/kg, subcutaneously) at 24 hours and 48 hours thereafter. Mice also received further fluid resuscitation (0.5 mL of Lactated Ringer's solution subcutaneously) at 6 hours and 24 hours following hemorrhagic shock. […] Mice were then monitored for survival for 7 days. […]

In assay [2] the test system is AMPKα1 and AMPKα2 subunits. The following applies: thoracic aortas; mice with sepsis; cited from earlier work.
Another assay has as its system mice with sepsis. The following applies: cited from earlier work.

Ends that are not written are not given here.

On to “PEGylated humanin-G: non-cleavable PEGylated humanin-G, humanin-G conjugated 1:1 molar ratio with PEG-maleimide (PEG10 kDa) (MAPRGFSCLLLLTGEIDLPVKRRA; not fully specified (residue 8); also: PEG 10 kDa maleimide conjugate, attachment site not given here; UniProt Q8IVG9 1-24, looked up, variant S14G)”, for which the survival entry in assay [1] is on record as “significantly ameliorated”.
On to “colivelin: synthetic analogue of humanin; SALLRSIPAPAGASRLLLLTGEIDLP (SEQ ID NO: 8)”, for which, in assay [2], the “activation of AMPKα1 and AMPKα2 subunits” value is reported as “activates”. For the same substance, the “organ injury in experimental septic shock” value in the assay with mice with sepsis (mice, Urban C, et al. 2022) was “protective effects”. Also, the “endothelial damage in mice with sepsis” value in the assay on mice with sepsis (thoracic aortas) is “ameliorating”.
